Calls of active or inactive are those of the source. For most assays here, no stated cut-off is given here; in the data, actives have a measured EC50 and inactives only a lower limit.
Experiments:
[1] = inhibitors of firefly luciferase expression or activity, dose response, H4 neuroglioma cells, luminescence (AID 1990); format: functional, cell-based
BJ [2] = experiment: cytotoxicity toward BJ-TERT fibroblasts, dose response, cell-based, RAS-independent, luminescence (AID 1933); format: functional; conditions: Homo sapiens
[3] = Luminescence Cell-Based Dose Response HTS to Identify Inhibitors of 5'UTR Stem-Loop Driven Prion Protein mRNA Translation in H4 Neuroglioblastoma Cells. [Related pubchem assays: 1827 (Project Summary), 1813 (Primary HTS)]; format: functional
BJ [4] = experiment: cells; format: functional, cell-based; conditions: Homo sapiens
BJ [5] = experiment: cytotoxicity toward BJ-TERT-LT-ST fibroblasts, dose response, cell-based, RAS-independent, luminescence (AID 1935); format: functional; conditions: Homo sapiens;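 further: BJ fibroblasts immortalized with TERT plus LT and ST oncogenes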
[6] = cytotoxicity toward DRD oncogenic fibroblasts, dose response, cell-based, non-viral oncogenic, luminescence (AID 1934); format: functional; conditions: Homo sapiens
[7] = Intein inhibitors as potential Tuberculosis drugs, a cytotoxicity screen. [Related pubchem assays (depositor defined):AID2221, AID2223, AID434968, AID435010, AID449749, AID449750, AID489010]; format: functional
[8] = target: T1, Replicative DNA helicase DnaB (Mycobacterium tuberculosis, UniProt P9WMR3); experiment: DnaB intein splicing inhibitors, dose response, biochemical, cell-free fluorescence (AID 449749); format: functional
T1 sequence (P9WMR3 whole entry): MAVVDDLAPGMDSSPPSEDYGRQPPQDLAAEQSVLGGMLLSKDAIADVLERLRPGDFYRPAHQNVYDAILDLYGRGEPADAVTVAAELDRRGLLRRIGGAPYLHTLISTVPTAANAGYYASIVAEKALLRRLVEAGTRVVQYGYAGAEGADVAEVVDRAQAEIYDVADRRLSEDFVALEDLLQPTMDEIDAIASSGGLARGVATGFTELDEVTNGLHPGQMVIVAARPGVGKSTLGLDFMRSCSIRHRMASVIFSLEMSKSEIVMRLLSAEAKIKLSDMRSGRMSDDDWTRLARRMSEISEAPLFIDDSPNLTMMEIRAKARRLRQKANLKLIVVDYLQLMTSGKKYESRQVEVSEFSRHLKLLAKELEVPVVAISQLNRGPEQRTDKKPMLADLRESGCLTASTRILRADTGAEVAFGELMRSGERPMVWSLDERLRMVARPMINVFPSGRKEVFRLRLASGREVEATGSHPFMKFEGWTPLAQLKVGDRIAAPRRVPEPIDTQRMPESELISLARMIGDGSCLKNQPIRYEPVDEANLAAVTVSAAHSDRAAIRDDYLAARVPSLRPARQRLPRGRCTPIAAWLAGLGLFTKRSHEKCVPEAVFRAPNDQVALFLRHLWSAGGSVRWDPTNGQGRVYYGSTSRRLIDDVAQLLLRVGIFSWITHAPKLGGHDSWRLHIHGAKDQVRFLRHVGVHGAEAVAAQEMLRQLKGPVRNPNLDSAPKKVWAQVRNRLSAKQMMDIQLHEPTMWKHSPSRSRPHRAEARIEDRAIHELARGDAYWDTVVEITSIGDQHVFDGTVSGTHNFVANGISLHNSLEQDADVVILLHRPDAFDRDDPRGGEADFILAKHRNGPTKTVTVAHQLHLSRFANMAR

[9] = target: T2, Apoptotic protease-activating factor 1 (Homo sapiens, UniProt O14727); format: functional
T2 sequence (O14727 whole entry): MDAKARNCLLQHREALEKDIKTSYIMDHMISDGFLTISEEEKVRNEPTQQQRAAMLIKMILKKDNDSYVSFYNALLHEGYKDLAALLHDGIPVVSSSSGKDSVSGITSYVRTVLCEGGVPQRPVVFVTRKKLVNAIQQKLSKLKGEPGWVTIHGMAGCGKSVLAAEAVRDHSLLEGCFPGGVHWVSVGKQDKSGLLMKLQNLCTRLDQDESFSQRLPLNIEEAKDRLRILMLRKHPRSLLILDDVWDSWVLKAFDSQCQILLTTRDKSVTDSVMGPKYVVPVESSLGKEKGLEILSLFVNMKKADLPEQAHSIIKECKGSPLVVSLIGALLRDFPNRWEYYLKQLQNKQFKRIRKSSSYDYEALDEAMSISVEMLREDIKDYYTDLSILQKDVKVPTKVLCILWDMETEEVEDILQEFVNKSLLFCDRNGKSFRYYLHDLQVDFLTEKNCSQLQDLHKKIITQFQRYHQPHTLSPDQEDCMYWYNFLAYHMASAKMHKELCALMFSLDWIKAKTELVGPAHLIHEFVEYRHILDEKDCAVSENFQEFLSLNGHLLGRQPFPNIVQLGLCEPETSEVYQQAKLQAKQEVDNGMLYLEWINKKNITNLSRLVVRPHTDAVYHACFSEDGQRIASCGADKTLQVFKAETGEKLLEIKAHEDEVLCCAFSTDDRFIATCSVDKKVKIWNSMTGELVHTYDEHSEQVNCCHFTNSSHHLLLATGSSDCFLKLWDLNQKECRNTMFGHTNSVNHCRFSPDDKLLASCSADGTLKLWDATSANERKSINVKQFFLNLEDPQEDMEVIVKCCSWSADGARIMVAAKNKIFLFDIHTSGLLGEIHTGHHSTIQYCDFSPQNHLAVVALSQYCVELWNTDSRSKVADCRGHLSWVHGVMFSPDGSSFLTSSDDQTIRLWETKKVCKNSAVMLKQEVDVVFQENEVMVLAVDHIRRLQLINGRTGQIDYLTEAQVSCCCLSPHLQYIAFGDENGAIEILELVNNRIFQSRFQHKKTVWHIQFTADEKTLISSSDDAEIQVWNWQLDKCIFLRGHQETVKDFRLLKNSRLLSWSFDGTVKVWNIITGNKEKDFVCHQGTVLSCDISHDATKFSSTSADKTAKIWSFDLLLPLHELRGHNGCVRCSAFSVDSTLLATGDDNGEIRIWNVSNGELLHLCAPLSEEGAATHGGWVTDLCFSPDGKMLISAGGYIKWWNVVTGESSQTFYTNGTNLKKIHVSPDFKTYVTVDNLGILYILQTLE

Protein RecA = target: T3, Protein RecA (Mycobacterium tuberculosis, UniProt P9WHJ3); experiment: Fluorescence Cell-Free Homogeneous Dose Retest to Identify Inhibitors of RecA-Intein Splicing Activity. [Related pubchem assays (depositor defined):AID2097, AID2223, AID489010, AID492950]; format: functional
T3 sequence (P9WHJ3 whole entry): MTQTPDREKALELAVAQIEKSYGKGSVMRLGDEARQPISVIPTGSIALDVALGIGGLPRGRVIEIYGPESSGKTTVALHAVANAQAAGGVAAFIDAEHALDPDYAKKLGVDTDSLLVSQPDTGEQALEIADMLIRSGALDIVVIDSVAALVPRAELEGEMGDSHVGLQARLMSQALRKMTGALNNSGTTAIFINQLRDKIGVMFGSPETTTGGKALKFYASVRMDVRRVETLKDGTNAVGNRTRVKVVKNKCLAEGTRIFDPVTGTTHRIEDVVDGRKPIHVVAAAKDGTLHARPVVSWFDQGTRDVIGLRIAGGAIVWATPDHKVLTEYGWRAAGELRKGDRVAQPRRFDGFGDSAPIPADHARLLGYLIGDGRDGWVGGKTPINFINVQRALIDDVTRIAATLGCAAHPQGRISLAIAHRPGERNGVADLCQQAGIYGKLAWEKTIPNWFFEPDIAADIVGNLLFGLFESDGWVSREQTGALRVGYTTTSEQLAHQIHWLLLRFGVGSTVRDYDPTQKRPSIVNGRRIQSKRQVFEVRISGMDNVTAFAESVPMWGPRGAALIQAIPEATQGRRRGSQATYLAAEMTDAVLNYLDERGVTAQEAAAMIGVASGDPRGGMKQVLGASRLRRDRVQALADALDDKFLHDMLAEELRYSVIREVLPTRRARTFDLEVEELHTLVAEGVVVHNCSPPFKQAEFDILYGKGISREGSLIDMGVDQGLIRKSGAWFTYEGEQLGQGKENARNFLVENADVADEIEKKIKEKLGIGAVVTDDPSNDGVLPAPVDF

INS1 = experiment: beta cell apoptosis inhibitors, cytokine rescue, dose response, luminescence, retest (AID 449756); format: functional, cell-based; conditions: Rattus norvegicus;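 further: cell death triggered by IL-1 beta plus TNF-alpha plus IFN-gamma mixture; protective hits raise ATP signal compared with cytokine alone wells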
[10] = target: Mitochondrial peptide methionine sulfoxide reductase (Bos taurus, UniProt P54149); format: functional;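 further: absorbance read-out, biochemical high-throughput dose-response screen for MsrA inhibitors, confirmatory; recombinant bovine MsrA coupled to E. coli TrxB with NADPH and selenocystamine; potency is for inhibitors of MsrA activity on DMSO substrate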
T-cell = experiment: inhibitors of CD8+ T cell–vesicle binding, dose response, mouse 2C CD8+ T cells, flow cytometry (AID 485284); format: functional
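Wherever CC50 is given: cells exposed to compound for 72 hours before luminescence readout.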

Mitochondrial peptide methionine sulfoxide reductase, sequence (P54149 whole entry): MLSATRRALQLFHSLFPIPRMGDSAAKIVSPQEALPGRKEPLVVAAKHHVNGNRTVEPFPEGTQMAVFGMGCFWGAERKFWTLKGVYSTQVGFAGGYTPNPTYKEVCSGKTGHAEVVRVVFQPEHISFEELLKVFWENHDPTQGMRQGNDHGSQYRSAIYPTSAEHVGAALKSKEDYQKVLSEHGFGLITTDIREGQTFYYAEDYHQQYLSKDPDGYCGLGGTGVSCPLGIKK

## Cc1oc2c(c1C(=O)N1CCOCC1)C(=O)c1ccccc1C2=O
[1]
  EC50: 8.24 µM (active)
BJ [2]
  EC50: 11.8 µM (active)
[3]
  EC50: 8.93 µM (active)
BJ [4]
  EC50: 13.4 µM (active)
BJ [5]
  EC50: > 75 µM (inconclusive)
[6]
  EC50: 10.5 µM (active)
[7]
  CC50: 6.26 µM (active)
[8]
  AC50: 1.41 µM (active)
[9]
  IC50: 13.9 µM (active)
Protein RecA
  EC50: 0.506 µM (active)
INS1
  AC50: 2.45 µM (active)
[10]
  IC50: 64.3 µM (inactive)

## CCOc1ccccc1NC(=O)c1ccc(F)c(S(=O)(=O)N2CCC3(CC2)OCCO3)c1
T-cell
  EC50: 16.4 µM (active)

Source: ChEMBL document CHEMBL1201862, “PubChem BioAssay data set” (2004)
